Test results from ChEMBL document CHEMBL4251666, “Quest for Efficacious Next-Generation Taxoid Anticancer Agents and Their Tumor-Targeted Delivery” (J Nat Prod, 2018).

Experiments:
[1] = Cytotoxicity against human MDA435/LCC6 cells; format: functional, cell-based; details: MDA-435/LCC6
HCT-116 = test: Cytotoxicity against CD133 positive human HCT116 cells; format: functional, cell-based
MCF7 [2] = test: Cytotoxicity against human paclitaxel-resistant MCF7 cells after 72 hrs by MTT assay; format: functional, cell-based; details: MCF7, 72 h
MCF7 [3] = test: Cytotoxicity against human MCF7 cells; format: functional, cell-based
A549 = test: Cytotoxicity against human A549 cells; format: functional, cell-based
A121 = test: Cytotoxicity against human A121 cells; format: functional, cell-based
[4] = Cytotoxicity against human CD133/CD44 positive PC3MM2 cells assessed as cell death at 0.01 to 10 uM after 72 hrs by MTT assay; format: functional
[5] = Cytotoxicity against human CD133/CD44 positive PPT2 cells assessed as cell death at 0.01 to 10 uM after 72 hrs by MTT assay; format: functional

Q: With `CC(=O)O[C@H]1C(=O)[C@@]2(C)[C@H]([C@@H]3OC(=O)c4ccccc4OC/C=C/CC[C@H](NC(=O)OC(C)(C)C)[C@@H](O)C(=O)O[C@H]4C[C@]3(O)C(C)(C)C1=C4C)[C@]1(OC(C)=O)CO[C@@H]1C[C@@H]2O` as the molecule, how does the IC50 [1] read?
A: 390 nM

Q: For `CC(=O)O[C@H]1C(=O)[C@@]2(C)[C@H]([C@H](OC(=O)c3ccccc3)[C@]3(O)C[C@H](OC(=O)[C@H](O)[C@@H](NC(=O)c4ccccc4)c4ccccc4)C(C)=C1C3(C)C)[C@]1(OC(C)=O)CO[C@@H]1C[C@@H]2O` [PACLITAXEL], which IC50 (HCT-116) is on record?
A: 33.8 nM

Q: For `CC(=O)O[C@@]12CO[C@@H]1C[C@H](O)[C@@]1(C)C(=O)[C@H](OC(=O)C3CC3)C3=C(C)[C@@H](OC(=O)[C@H](O)[C@H](C=C(C)C)NC(=O)OC(C)(C)C)C[C@@](O)([C@@H](OC(=O)c4cccc(OC(F)(F)F)c4)[C@H]21)C3(C)C`, which IC50 (MCF7 [2]) is on record?
A: 34.9 nM

Q: For `CC(=O)O[C@@]12CO[C@@H]1C[C@H](O)[C@@]1(C)C(=O)[C@H](OC(=O)N(C)C)C3=C(C)[C@@H](OC(=O)[C@H](O)[C@H](C=C(C)C)NC(=O)OC(C)(C)C)C[C@@](O)([C@@H](OC(=O)c4cccc(C)c4)[C@H]21)C3(C)C`, which IC50 (HCT-116) is on record?
A: 0.24 nM

Q: For `CN(Cc1cnc2nc(N)nc(N)c2n1)c1ccc(C(=O)N[C@@H](CCC(=O)O)C(=O)O)cc1` [METHOTREXATE], which IC50 (HCT-116) is on record?
A: 32.7 nM

Q: What does the source list for `CC(=O)O[C@H]1C(=O)[C@@]2(C)[C@H]([C@H](OC(=O)C=C(C)C)[C@]3(O)C[C@H](OC(=O)[C@H](O)[C@H](C=C(C)C)NC(=O)OC(C)(C)C)C(C)=C1C3(C)C)[C@]1(OC(C)=O)CO[C@@H]1C[C@@H]2O`?
A: IC50 (MCF7 [3]): 0.9 nM; IC50 (A549): 0.9 nM; IC50 (A121): 0.9 nM

Q: With `CC[C@@]1(O)C(=O)OCc2c1cc1n(c2=O)Cc2cc3c(CN(C)C)c(O)ccc3nc2-1` [TOPOTECAN] as the molecule, how does the IC50 (HCT-116) read?
A: 451 nM

Q: Which IC50 (MCF7 [2]) does the source give for `CC(=O)O[C@@]12CO[C@@H]1C[C@H](O)[C@@]1(C)C(=O)[C@H](OC(=O)N(C)C)C3=C(C)[C@@H](OC(=O)[C@H](O)[C@H](C=C(C)C)NC(=O)OC(C)(C)C)C[C@@](O)([C@@H](OC(=O)c4cccc(OC(F)(F)F)c4)[C@H]21)C3(C)C` here?
A: 31.4 nM

Q: With `CC(=O)O[C@@]12CO[C@@H]1C[C@H](O)[C@@]1(C)C(=O)[C@H](OC(=O)N(C)C)C3=C(C)[C@@H](OC(=O)[C@H](O)[C@H](C=C(F)F)NC(=O)OC(C)(C)C)C[C@@](O)([C@@H](OC(=O)c4ccccc4)[C@H]21)C3(C)C` as the molecule, how does the IC50 (HCT-116) read?
A: 0.14 nM

Q: Which IC50 (MCF7 [2]) does the source give for `CC(=O)O[C@@]12CO[C@@H]1C[C@H](O)[C@@]1(C)C(=O)[C@H](OC(=O)C3CC3)C3=C(C)[C@@H](OC(=O)[C@H](O)[C@H](C=C(C)C)NC(=O)OC(C)(C)C)C[C@@](O)([C@@H](OC(=O)c4ccccc4)[C@H]21)C3(C)C` here?
A: 80.5 nM

Q: And the IC50 (HCT-116)?
A: 0.28 nM

Q: With `CC(=O)O[C@H]1C(=O)[C@@]2(C)[C@H]([C@H](OC(=O)c3cccc(OC(F)(F)F)c3)[C@]3(O)C[C@H](OC(=O)[C@H](O)[C@H](C=C(C)C)NC(=O)OC(C)(C)C)C(C)=C1C3(C)C)[C@]1(OC(C)=O)CO[C@@H]1C[C@@H]2O` as the molecule, how does the IC50 (MCF7 [2]) read?
A: 19 nM

Q: For `COc1cccc2c1C(=O)c1c(O)c3c(c(O)c1C2=O)C[C@@](O)(C(=O)CO)C[C@@H]3O[C@H]1C[C@H](N)[C@H](O)[C@H](C)O1` [DOXORUBICIN], which IC50 (HCT-116) is on record?
A: 78 nM

Q: What does the source list for `CO[C@]12C=C[C@](C)(O1)[C@@H](OC(=O)/C=C/c1cn(C)cn1)C[C@H]1C(C)=CC[C@H](C(C)C)[C@H]1/C=C\2CO[C@@H]1OC[C@@H](O)[C@@H](O)[C@@H]1OC(C)=O` [ELEUTHEROBIN]?
A: Activity [4]: 60%; Activity [5]: 60%

Q: For `CC(=O)O[C@H]1C(=O)[C@@]2(C)[C@H]([C@H](OC(=O)c3ccccc3)[C@]34OC(=O)O[C@H]3[C@H](OC(=O)[C@H](O)[C@H](C=C(C)C)NC(=O)OC(C)(C)C)C(C)=C1C4(C)C)[C@]1(OC(C)=O)CO[C@@H]1C[C@@H]2O`, which IC50 (MCF7 [2]) is on record?
A: 66.7 nM

Q: With `CC(=O)O[C@@]12CO[C@@H]1C[C@H](O)[C@@]1(C)C(=O)[C@H](OC(=O)N(C)C)C3=C(C)[C@@H](OC(=O)[C@H](O)[C@H](C=C(C)C)NC(=O)OC(C)(C)C)C[C@@](O)([C@@H](OC(=O)c4ccccc4)[C@H]21)C3(C)C` as the molecule, how does the IC50 (HCT-116) read?
A: 0.83 nM

Q: For `CCC(=O)O[C@H]1C(=O)[C@@]2(C)[C@H]([C@H](OC(=O)c3cccc(OC)c3)[C@]3(O)C[C@H](OC(=O)[C@H](O)[C@H](C=C(C)C)NC(=O)OC(C)(C)C)C(C)=C1C3(C)C)[C@]1(OC(C)=O)CO[C@@H]1C[C@@H]2O`, which IC50 (MCF7 [2]) is on record?
A: 21.7 nM
